Data taken from patent US20060183759A1, “Tissue transglutaminase inhibitors” (priority 2004, published 2006).
Counter-ions that a name gives are not always drawn. Like-named read-outs stand apart in the source and are kept apart here.

Assays:
[1] = biological target: T1, transglutaminase 2 (TGase 2) (Homo sapiens, UniProt P21980); test: TGase 2 transpeptidase fluorescence assay: incorporation of KXD into N,N-dimethylated-casein (Std and FPC formats); format: biochemical; conditions: for TGase 2 inhibitory activity, SAR comment in words (relative to parent compound): qualitative comparison
T1 sequence (P21980 1-687): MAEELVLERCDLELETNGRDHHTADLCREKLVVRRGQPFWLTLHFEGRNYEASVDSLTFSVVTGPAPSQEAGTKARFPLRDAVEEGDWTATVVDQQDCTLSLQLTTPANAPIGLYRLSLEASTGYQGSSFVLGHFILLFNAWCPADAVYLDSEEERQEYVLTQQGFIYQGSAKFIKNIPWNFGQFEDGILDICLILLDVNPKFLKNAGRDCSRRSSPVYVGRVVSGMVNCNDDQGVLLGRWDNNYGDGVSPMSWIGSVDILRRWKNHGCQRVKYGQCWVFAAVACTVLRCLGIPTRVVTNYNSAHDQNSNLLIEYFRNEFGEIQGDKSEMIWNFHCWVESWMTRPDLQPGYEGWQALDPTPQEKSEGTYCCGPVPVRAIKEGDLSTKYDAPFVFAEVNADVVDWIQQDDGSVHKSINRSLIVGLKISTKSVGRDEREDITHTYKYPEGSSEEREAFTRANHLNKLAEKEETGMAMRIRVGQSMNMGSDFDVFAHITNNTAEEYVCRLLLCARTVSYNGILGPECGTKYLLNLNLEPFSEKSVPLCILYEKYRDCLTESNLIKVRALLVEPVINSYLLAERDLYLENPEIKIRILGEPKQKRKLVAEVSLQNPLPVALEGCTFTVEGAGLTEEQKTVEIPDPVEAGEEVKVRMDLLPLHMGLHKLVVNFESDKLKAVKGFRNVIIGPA
Protocol: Transpeptidase activity was monitored as the increase in fluorescence intensity (FI) that accompanies incorporation of the dansylated Lys derivative, α-N-Boc-Lys-CH2-CH2-dansyl (KXD), into the protein substrate, N,N-dimethylated-casein (NMC).
Therefore, a method was used in which full progress curves (FPC) were recorded for the TGase-catalyzed reaction of KXD with NMC in the presence of inhibitor (Table 1-4). Reactions were initiated by enzyme addition to a solution of substrate and inhibitor. […] From such progress curves, IC50 values were calculated using the following equation: IC50=[I]/{(vc/vss)−1}. Progress curves recorded at several inhibitor concentrations were used to determine FPC IC50 values (Table 1-4).

[2] = biological target: T1, transglutaminase 2 (TGase 2); test: as above; format: biochemical; conditions: standard format (Std): reactions terminated after 60 min, FI recorded, four-parameter fit
[3] = full progress curves (FPC), IC50=[I]/{(vc/vss)−1}, from steady-state velocity, read-out: IC50 (μM, FPC)
[4] = summary of FPC values, read-out: FPC IC50 values

SMILES | IC50 [1, 3] | IC50 [2] | TGase 2 inhibitory activity, SAR comment in words (relative to parent compound) [1] | IC50 [1, 4]
NNC(=O)CSc1nc2scc(-c3ccccc3)c2c(=O)n1-c1ccccc1 [986-01, (4-Oxo-3,5-diphenyl-3,4-dihydro-thieno[2,3-d]pyrimidin-2-ylsulfanyl)acetic acid hydrazide] | 0.25 µM | 0.8 µM |  | 
NNC(=O)CSc1nc2ccccc2c(=O)n1-c1ccccc1 [986-03, (4-Oxo-3-phenyl-3,4-dihydroquinazolin-2-ylsulfanyl)acetic acid hydrazide] |  | 18 µM | decreased activity | 
NNC(=O)CSc1nc2scc(-c3ccccc3)c2c(=O)n1-c1ccc(F)cc1 [986-07, [3-(4-Fluorophenyl)-4-oxo-5-phenyl-3,4-dihydrothieno[2,3-d]pyrimidin-2-ylsulfanyl]acetic acid hydrazide] | 0.32 µM | 1.3 µM |  | 
NNC(=O)CSc1nc2scc(-c3ccc(F)cc3)c2c(=O)n1-c1ccccc1 [986-08, [5-(4-Fluorophenyl)-4-oxo-3-phenyl-3,4-dihydrothieno[2,3-d]pyrimidin-2-ylsulfanyl]acetic acid hydrazide] | 0.29 µM | 0.8 µM |  | 
NNC(=O)CSc1nc2scc(-c3ccc(F)cc3)c2c(=O)n1-c1ccc(F)cc1 [986-09, [3,5-Bis-(4-fluorophenyl)-4-oxo-3,4-dihydrothieno[2,3-d]pyrimidin-2-ylsulfanyl]acetic acid hydrazide] | 0.67 µM | 1.5 µM |  | 
Cc1sc2nc(SCC(=O)NN)n(-c3ccccc3)c(=O)c2c1-c1ccccc1 [986-13, (6-Methyl-4-oxo-3,5-diphenyl-3,4-dihydrothieno[2,3-d]pyrimidin-2-ylsulfanyl)acetic acid hydrazide] | 0.16 µM | 1.5 µM | increased activity | < 0.16 µM
NNC(=O)CSc1nc2scc(-c3ccccc3)c2c(=O)n1-c1ccccc1F [986-18, [3-(2-Fluorophenyl)-4-oxo-5-phenyl-3,4-dihydrothieno[2,3-d]pyrimidin-2-ylsulfanyl]acetic acid hydrazide] | 0.16 µM | 0.5 µM |  | 
NNC(=O)CSc1nc2scc(-c3ccccc3)c2c(=O)n1-c1cccc(F)c1 [986-19, [3-(3-Fluorophenyl)-4-oxo-5-phenyl-3,4-dihydrothieno[2,3-d]pyrimidin-2-ylsulfanyl]acetic acid hydrazide] | 0.18 µM | 0.25 µM |  | < 0.16 µM
COc1cccc(-n2c(SCC(=O)NN)nc3scc(-c4ccccc4)c3c2=O)c1 [986-21, [3-(3-Methoxyphenyl)-4-oxo-5-phenyl-3,4-dihydrothieno[2,3-d]pyrimidin-2-ylsulfanyl]acetic acid hydrazide] | 0.47 µM | 0.82 µM |  | 
Cc1sc2nc(SCCC(=O)NN)n(-c3ccccc3)c(=O)c2c1-c1ccccc1 [986-22, 3-(6-Methyl-4-oxo-3,5-diphenyl-3,4-dihydrothieno[2,3-d]pyrimidin-2-ylsulfanyl)propionic acid hydrazide] |  | 1.3 µM | diminished activity | 
NNC(=O)CSc1nc2scc(-c3ccccc3)c2c(=O)n1-c1cc(F)ccc1F [986-26, [3-(2,5-Difluorophenyl)-4-oxo-5-phenyl-3,4-dihydrothieno[2,3-d]pyrimidin-2-ylsulfanyl]acetic acid hydrazide] | 0.23 µM | 0.59 µM |  | 
NNC(=O)CSc1nc2scc(-c3ccccc3)c2c(=O)n1-c1cc(F)cc(F)c1 [986-27, [3-(3,5-Difluorophenyl)-4-oxo-5-phenyl-3,4-dihydrothieno[2,3-d]pyrimidin-2-ylsulfanyl]acetic acid hydrazide] | 0.22 µM | 0.48 µM |  | 
NNC(=O)CSc1nc2sc(-c3ccccc3)cc2c(=O)n1-c1ccccc1 [986-29, (4-Oxo-3,6-diphenyl-3,4-dihydrothieno[2,3-d]pyrimidin-2-ylsulfanyl)acetic acid hydrazide] |  | > 20 µM | loss of inhibitory activity | 

Second part, the compound after the results:

IC50 [1, 3] | IC50 [2] | TGase 2 inhibitory activity, SAR comment in words (relative to parent compound) [1] | IC50 [1, 4] | SMILES
 | 4.5 µM | decreased activity |  | NNC(=O)COc1nc2scc(-c3ccccc3)c2c(=O)n1-c1ccccc1 [986-30, (4-Oxo-3,5-diphenyl-3,4-dihydrothieno[2,3-d]pyrimidin-2-yloxy)acetic acid hydrazide]
0.14 µM | 0.21 µM |  | < 0.16 µM | COc1cccc(-c2csc3nc(SCC(=O)NN)n(-c4cccc(F)c4)c(=O)c23)c1 [986-32, [3-(3-Fluorophenyl)-5-(3-methoxyphenyl)-4-oxo-3,4-dihydrothieno[2,3-d]pyrimidin-2-ylsulfanyl]acetic acid hydrazide]
 | 1.4 µM |  |  | NNC(=O)CSc1nc2scc(-c3ccccc3O)c2c(=O)n1-c1cccc(F)c1 [986-34, [3-(3-Fluorophenyl)-5-(2-hydroxyphenyl)-4-oxo-3,4-dihydrothieno[2,3-d]pyrimidin-2-ylsulfanyl]acetic acid hydrazide]
 | 4.8 µM | decreased inhibitory activity |  | CCN(CC)CCCOc1ccccc1-c1csc2nc(SCC(=O)NN)n(-c3cccc(F)c3)c(=O)c12 [986-35, [5-[2-(3-Diethylaminopropoxy)phenyl]-3-(3-fluorophenyl)-4-oxo-3,4-dihydrothieno[2,3-d]pyrimidin-2-ylsulfanyl]acetic acid hydrazide]
0.17 µM | 0.93 µM |  |  | NNC(=O)CSc1nc2sc3c(c2c(=O)n1-c1cccc(F)c1)C(c1ccccc1)CCC3 (stereo not shown) [986-44, [3-(3-Fluorophenyl)-4-oxo-5-phenyl-3,4,5,6,7,8-hexahydrobenzo[4,5]thieno[2,3-d]pyrimidin-2-ylsulfanyl]acetic acid hydrazide]
 | 2.3 µM |  |  | NNC(=O)CSc1nc2sc3c(c2c(=O)n1-c1cccc(F)c1)C(Cc1ccccc1)CCC3 (stereo not shown) [986-45, [5-Benzyl-3-(3-fluorophenyl)-4-oxo-3,4,5,6,7,8-hexahydrobenzo[4,5]thieno[2,3-d]pyrimidin-2-ylsulfanyl]acetic acid hydrazide]
 | 6 µM |  |  | CCCN1CCc2c(sc3nc(SCC(=O)NN)n(-c4cccc(F)c4)c(=O)c23)C1 [986-49, [3-(3-Fluorophenyl)-4-oxo-7-propyl-3,4,5,6,7,8-hexahydro-9-thia-1,3,7-triazafluoren-2-ylsulfanyl]acetic acid hydrazide]
 | > 20 µM |  |  | CN(N)C(=O)CSc1nc2scc(-c3ccc(F)cc3)c2c(=O)n1-c1ccc(F)cc1 [986-50, [3,5-Bis-(4-fluorophenyl)-4-oxo-3,4-dihydrothieno[2,3-d]pyrimidin-2-ylsulfanyl]acetic acid N-methylhydrazide]
 | > 20 µM |  |  | CNNC(=O)CSc1nc2scc(-c3ccc(F)cc3)c2c(=O)n1-c1ccc(F)cc1 [986-51, [3,5-Bis-(4-fluorophenyl)-4-oxo-3,4-dihydrothieno[2,3-d]pyrimidin-2-ylsulfanyl]acetic acid N′-methylhydrazide]
 | > 20 µM |  |  | CNC(=O)CSc1nc2scc(-c3ccc(F)cc3)c2c(=O)n1-c1ccc(F)cc1 [986-52, 2-[3,5-Bis-(4-fluorophenyl)-4-oxo-3,4-dihydrothieno[2,3-d]pyrimidin-2-ylsulfanyl]-N-methylacetamide]
 | > 10 µM |  |  | NC(=O)CSc1nc2scc(-c3ccccc3F)c2c(=O)n1-c1cccc(F)c1 [986-53, 2-[3-(3-Fluorophenyl)-5-(2-fluorophenyl)-4-oxo-3,4-dihydrothieno[2,3-d]pyrimidin-2-ylsulfanyl]acetamide]
 | > 20 µM |  |  | O=C(O)CSc1nc2scc(-c3ccc(F)cc3)c2c(=O)n1-c1ccc(F)cc1 [986-54, [3,5-Bis-(4-fluorophenyl)-4-oxo-3,4-dihydrothieno[2,3-d]pyrimidin-2-ylsulfanyl]acetic acid]
 | > 20 µM |  |  | O=C(CSc1nc2scc(-c3ccc(F)cc3)c2c(=O)n1-c1ccc(F)cc1)NO [986-55, 2-[3,5-Bis-(4-fluorophenyl)-4-oxo-3,4-dihydrothieno[2,3-d]pyrimidin-2-ylsulfanyl]-N-hydroxyacetamide]
 | 5.3 µM |  |  | NCC(=O)CSc1nc2scc(-c3ccccc3)c2c(=O)n1-c1cccc(F)c1 [986-56, 2-(3-Amino-2-oxo-propylsulfanyl)-3-(3-fluorophenyl)-5-phenyl-3H-thieno[2,3-d]pyrimidin-4-one hydrochloride]
 | > 20 µM |  |  | CCOC(=O)CSc1nc2scc(-c3ccccc3)c2c(=O)n1-c1ccc(F)cc1 [986-58, [3-(4-Fluorophenyl)-4-oxo-5-phenyl-3,4-dihydrothieno[2,3-d]pyrimidin-2-ylsulfanyl]acetic acid ethyl ester]
